The values below come from the OligoGym collection.

After the bases stand the sugars from the 5' end (letter, count) and the backbone: PS all phosphorothioate, else s phosphorothioate and o phosphodiester by linkage. Methylation of C is not given here. e = 2'-O-(2-methoxyethyl) (MOE); k = constrained ethyl (cEt); d = 2'-deoxy (DNA); m = 2'-O-methyl

For the series, the target named is HSD17B13. The note with it: ASO, HepaRG.

Take “AGAGAGTAATCAGTTT (sugars k3 d1 m1 d8 k3, PS)”: the target mRNA inhibition (1 µM) came to 25%. Still for that read-out and setting: for GAATAGGAGAGTCTTT (sugars k3 d10 k3, PS) the value was 58%. Consider ATTATACTTTTCCGTC (sugars k3 d10 k3, PS), for which the target mRNA inhibition is, setting by setting: (0.02 µM) 12%; (0.078 µM) 0%; (0.313 µM) 47%; (1 µM) 75%; (1.25 µM) 75%; (5 µM) 84%.

“GATTAGTCTTGATGTA (sugars kkdddddddddkekek, PS)”: where the note is “1 µM”, the target mRNA inhibition is 56%.

Sequence AGTACCAAGACACTAA (sugars k3 d10 k3, PS) displayed a target mRNA inhibition (1 µM) of 66%.

Where the note is “1 µM”, CTTGAATAGCAAGCCA (sugars k3 d10 k3, PS) displayed a target mRNA inhibition of 25%. The same measure, in the same setting: to CAGTTTTCCTCATGAT (sugars k3 d10 k3, PS) belongs 65%. ACCTGATTTAGAGAGC (sugars k3 d10 k3, PS) displayed a target mRNA inhibition (1 µM) of 65%.

Take “TAAACCTTCCCTGTGT (sugars k3 d1 m1 d8 k3, PS)”: the target mRNA inhibition (1 µM) turned out to be 46%. Same read-out and setting: for TCGAAACTATTCATAT (sugars k3 d10 k3, PS) the value was 64%.

For CAGAGTTATTGTAGGG (sugars k3 d10 k3, PS), the target mRNA inhibition (0.02 µM) amounted to 16%; the target mRNA inhibition (0.078 µM) was 24%; the target mRNA inhibition (0.313 µM) came out at 51%; the target mRNA inhibition (1 µM) is 83%; the target mRNA inhibition (1.25 µM) stood at 74%; the target mRNA inhibition (5 µM) was determined as 93%. As to TGAGAACAATCTCCCC (sugars k3 d10 k3, PS), the target mRNA inhibition is, setting by setting: (0.02 µM) 12%; (0.078 µM) 30%; (0.313 µM) 57%; (1 µM) 69%; (1.25 µM) 84%; (5 µM) 90%.

CTAAATTACTCCGTTC (sugars k3 d10 k3, PS) came in with a target mRNA inhibition (1 µM) of 20%. For the sequence ACAGTTTAGATTGCAT (sugars k3 d10 k3, PS), the target mRNA inhibition runs as follows: (0.02 µM) 12%; (0.078 µM) 0%; (0.313 µM) 73%; (1 µM) 84%; (1.25 µM) 73%; (5 µM) 97%. Regarding TATCAGACTTCTTACG (sugars k3 d10 k3, PS), the target mRNA inhibition (1 µM) came out at 59%.

In turn, GTAATTGGCTCTTGAG (sugars k3 d10 k3, PS) had a target mRNA inhibition (1 µM) of 44%. Same read-out and setting: for ATCCTACATGTAAGGT (sugars k3 d10 k3, PS) the value was 24%; for GCTTTAATTTTTGAGC (sugars k3 d10 k3, PS), 26%; for AATTTATTTGCTGGTC (sugars k3 d10 k3, PS), 27%. On the same count and under the same terms, for “TTGACTGCTGCTAGTG (sugars k3 d9 k3 e1, PS)” the value was 50%; for GTCCTAGGGAGGAGGT (sugars k3 d10 k3, PS), 36%. On the same count and under the same terms, to TTCTTACGACTTCATC (sugars k3 d10 k3, PS) belongs 47%; to TCATAAACATAGGCTT (sugars k3 d10 k3, PS), 58%. For AAGAAATTTGTGAACC (sugars k3 d10 k3, PS), the target mRNA inhibition (1 µM) was 21%. With TGTAGTCCTAGGGAGG (sugars k3 d10 k3, PS), the target mRNA inhibition was 0% (0.02 µM); 0% (0.078 µM); 32% (0.313 µM); 86% (1 µM); 66% (1.25 µM); 83% (5 µM). In turn, ATCCATATTCCCTGAT (sugars k3 d10 k3, PS) came in with a target mRNA inhibition (1 µM) of 26%. The same measure, in the same setting: for ACATCCAAGTAATTAC (sugars k3 d10 k3, PS) the value was 56%; for ACTCGGGAAGTTTAGA (sugars k3 d10 k3, PS), 26%. As for GAGTTATCTGGTTTGC (sugars k3 d10 k3, PS), the target mRNA inhibition reads like this: (0.02 µM) 0%; (0.078 µM) 0%; (0.313 µM) 27%; (1 µM) 84%; (1.25 µM) 68%; (5 µM) 91%. The sequence ACTAATCTCAGTACTC (sugars k3 d10 k3, PS) yielded a target mRNA inhibition (1 µM) of 45%. With TTAGCTTAAACTCCAA (sugars k3 d10 k3, PS), the target mRNA inhibition by setting is: (0.02 µM) 0%; (0.078 µM) 18%; (0.313 µM) 38%; (1 µM) 78%; (1.25 µM) 75%; (5 µM) 82%. For the sequence “ACATTGCAGTTATTAG (sugars kkdddddddddkekek, PS)”, the target mRNA inhibition (1 µM) was determined as 46%. Still for that read-out and setting: to “ACCGUTTTGGGCTAAT (sugars k3 d1 m1 d8 k3, PS)” belongs 65%; to TATAACTGGAAGGAGG (sugars k3 d10 k3, PS), 44%; to GGATTAATTCCCTTCC (sugars k3 d10 k3, PS), 10%. On the same count and under the same terms, to AGGGAATGTTATGTAC (sugars k3 d10 k3, PS) belongs 49%. Still for that read-out and setting: to ATTCTACACTAATATT (sugars k3 d10 k3, PS) belongs 0%. As to TATTATGCACTCTATA (sugars k3 d10 k3, PS), the target mRNA inhibition (1 µM) was determined as 9%.

For the setting “1 µM”, TATTAGTTGGCCTGCC (sugars k3 d10 k3, PS) registered a target mRNA inhibition of 14%. Same read-out and setting: to “CGATCCTATATACATC (sugars k3 d9 k3 e1, PS)” belongs 29%; to TACTATTCTCCAACTC (sugars k3 d10 k3, PS), 47%; to AACTTCACCAACGACT (sugars k3 d10 k3, PS), 0%. Still for that read-out and setting: to CTCTTGACAATGGTTG (sugars k3 d10 k3, PS) belongs 50%; to AGTTTCCTCCACACCG (sugars k3 d10 k3, PS), 28%; to ATCGGCTGGATATACT (sugars k3 d10 k3, PS), 10%. Same read-out and setting: to “GTCTTGATGTAGTGGG (sugars k3 d9 k3 e1, PS)” belongs 70%; to AGGTAGCTTTTGTCCA (sugars k3 d10 k3, PS), 56%; to AGAATAGTCTTCAGCA (sugars k3 d10 k3, PS), 80%. Turning to CGATGTGGCCATGATT (sugars k3 d10 k3, PS), the target mRNA inhibition (1 µM) stood at 44%. On the same count and under the same terms, for CCTGTGTTAGCTTTAA (sugars k3 d10 k3, PS) the value was 67%; for TAGCTTTTGTCCACCT (sugars k3 d10 k3, PS), 60%; for “AGTTAGTATAGTTATC (sugars k3 d9 k3 e1, PS)”, 47%. On the same count and under the same terms, to GATTTAGAGAGCGATA (sugars k3 d10 k3, PS) belongs 44%. Still for that read-out and setting: for CTCCTGAGTCTTTCTA (sugars k3 d10 k3, PS) the value was 23%; for “GTAATCACAAGTAAGG (sugars k3 d9 k3 e1, PS)”, 56%. On to AGGGAGACCATGCTGC (sugars k3 d10 k3, PS), for which the target mRNA inhibition reads like this: (0.02 µM) 10%; (0.078 µM) 28%; (0.313 µM) 52%; (1 µM) 79%; (1.25 µM) 59%; (5 µM) 79%. Sequence GAAACCAATCCTCAGC (sugars k3 d10 k3, PS) returned a target mRNA inhibition (1 µM) of 3%. As for TTGAACCGTATTCCCA (sugars k3 d10 k3, PS), under “1 µM”, the target mRNA inhibition is 76%. On the same count and under the same terms, for GCTATAGTAATTGCTA (sugars k3 d10 k3, PS) the value was 33%.

Regarding CATGATTAAGCAGAAT (sugars k3 d10 k3, PS), the target mRNA inhibition (1 µM) was found to be 42%. Same read-out and setting: for GATGGTGATCAGAAGC (sugars k3 d10 k3, PS) the value was 52%; for “TCTTAAGATACCCAGG (sugars kkdddddddddkekek, PS)”, 35%.

As for AAGTAGATGGTAAGTC (sugars k3 d10 k3, PS), the target mRNA inhibition is, setting by setting: (0.02 µM) 7%; (0.078 µM) 42%; (0.313 µM) 67%; (1 µM) 85%; (1.25 µM) 89%; (5 µM) 95%.

For the setting “1 µM”, TTATTAGAAGTCAGCC (sugars k3 d10 k3, PS) yielded a target mRNA inhibition of 36%. The sequence “TCTTATGTAATAGCCA (sugars kkdddddddddkekek, PS)” had a target mRNA inhibition (1 µM) of 65%. Still for that read-out and setting: to TAGAGAGCATAAGTTA (sugars k3 d10 k3, PS) belongs 59%; to TGGGATACTATTCTCC (sugars k3 d10 k3, PS), 18%; to “CCTGUGTTAGCTTTAA (sugars k3 d1 m1 d8 k3, PS)”, 28%. Still for that read-out and setting: for “ACACTAATATTGAGGC (sugars k3 d9 k3 e1, PS)” the value was 68%; for CCTTATGTTATCTCAA (sugars k3 d10 k3, PS), 67%; for “TTGGAATGCTACTTGA (sugars k3 d9 k3 e1, PS)”, 56%. The same measure, in the same setting: to “CTGCTGCTAGTGCCAA (sugars kkdddddddddkekek, PS)” belongs 44%; to “CGATCCTATATACATC (sugars k3 d1 m1 d8 k3, PS)”, 28%; to GTGGTAACGGTGATCA (sugars k3 d10 k3, PS), 49%.

“TGCACCGTTTTGGGCT (sugars k3 d9 k3 e1, PS)” returned a target mRNA inhibition (1 µM) of 43%.

Take “AGTCGGTCACCTTTCA (sugars k3 d1 m1 d8 k3, PS)”: the target mRNA inhibition (1 µM) was 61%. The same measure, in the same setting: to CTTTTAACTACCCTCA (sugars k3 d10 k3, PS) belongs 16%.
